Test results taken from patent publication US11912701B2, “Protein kinase inhibitors for promoting liver regeneration or reducing or preventing hepatocyte death” (HEPAREGENIX GMBH, priority 2018, dated 2024).

Tests used:
MKK4 [1] = target: T1, MKK4 (Homo sapiens, UniProt P45985); assay: KINOMEscan competition binding assay, MKK4; conditions: residual percent of control binding (PoC) at 100 nM
T1 construct: S84/D399; host or cells: HEK-293
T1 sequence (P45985 84-399): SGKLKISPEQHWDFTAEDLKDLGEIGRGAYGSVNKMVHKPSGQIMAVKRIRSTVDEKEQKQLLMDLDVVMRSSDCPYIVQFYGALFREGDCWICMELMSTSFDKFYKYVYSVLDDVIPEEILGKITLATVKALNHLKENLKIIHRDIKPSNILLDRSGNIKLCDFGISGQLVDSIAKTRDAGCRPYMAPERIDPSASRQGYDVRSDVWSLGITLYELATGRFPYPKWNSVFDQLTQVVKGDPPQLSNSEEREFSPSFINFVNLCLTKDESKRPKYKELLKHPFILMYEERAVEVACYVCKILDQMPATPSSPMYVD
In short: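 KINOMEscan competition of compound versus immobilized ligand for DNA-tagged MKK4 expressed in HEK-293 cells. Bound kinase was quantified by qPCR after elution.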

MKK7 [2] = target: T2, MKK7 (Homo sapiens, UniProt O14733); assay: KINOMEscan competition binding assay, MKK7; set-up: M1/R419; host or cells: HEK-293; conditions: ratio PoC (off-target)/PoC (MKK4)
T2 sequence (O14733 1-419): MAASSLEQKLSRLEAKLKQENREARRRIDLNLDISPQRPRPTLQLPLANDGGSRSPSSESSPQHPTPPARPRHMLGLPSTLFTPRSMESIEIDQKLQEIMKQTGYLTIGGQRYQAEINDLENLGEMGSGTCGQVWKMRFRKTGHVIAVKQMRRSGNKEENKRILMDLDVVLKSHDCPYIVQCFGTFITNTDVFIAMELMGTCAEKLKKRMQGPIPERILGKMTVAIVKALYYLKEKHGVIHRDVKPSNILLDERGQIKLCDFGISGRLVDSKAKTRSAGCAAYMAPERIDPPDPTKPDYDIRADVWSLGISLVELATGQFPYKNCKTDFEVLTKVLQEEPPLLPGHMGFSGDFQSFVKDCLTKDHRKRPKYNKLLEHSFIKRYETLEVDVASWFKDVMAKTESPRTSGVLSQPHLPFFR
In short: (§1)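 DNA-tagged kinases expressed in HEK-293 cells compete between immobilized ligand on blocked beads and test compound at 100 nM; kinase retained on beads quantified by qPCR of the tag.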

JNK1 [3] = target: T3, JNK1 (Homo sapiens, UniProt P45983); assay: 33PanQinase enzyme assay, JNK1; format: biochemical; set-up: purchased ProQinase GmbH, Freiburg, Germany (33PanQinase Assay Service); conditions: ratio IC50(JNK1)/IC50(MKK4)
In short: (§2)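 Radiometric 33PanQinase format: kinase with substrate, ATP and compound (added in 10% DMSO stock) incubated 60 min at 30° C, stopped with 2% H3PO4, ^33Pi incorporation counted by scintillation. Single-concentration data given as % residual activity; IC50 by least-squares fit, with selectivity as IC50(off-target)/IC50(MKK4).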
Target sequence in this assay (P45983 whole entry): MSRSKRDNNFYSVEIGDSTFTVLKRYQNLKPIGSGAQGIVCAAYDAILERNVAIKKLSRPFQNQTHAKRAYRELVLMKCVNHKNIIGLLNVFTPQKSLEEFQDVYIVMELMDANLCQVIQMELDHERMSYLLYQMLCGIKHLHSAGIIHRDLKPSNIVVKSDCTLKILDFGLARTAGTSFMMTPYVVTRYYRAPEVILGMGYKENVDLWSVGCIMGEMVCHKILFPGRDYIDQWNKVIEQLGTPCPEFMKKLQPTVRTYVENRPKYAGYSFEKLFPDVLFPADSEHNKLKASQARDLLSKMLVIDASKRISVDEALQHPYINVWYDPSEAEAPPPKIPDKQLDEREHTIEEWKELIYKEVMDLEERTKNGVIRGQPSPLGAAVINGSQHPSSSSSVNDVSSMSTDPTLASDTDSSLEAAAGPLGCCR

BRaf [4] = target: T4, BRaf (Homo sapiens, UniProt P15056); assay: KINOMEscan competition binding assay, BRaf; conditions: ratio PoC (off-target)/PoC (MKK4)
T4 construct: purchased ProQinase GmbH, Freiburg, Germany (33PanQinase Assay Service)
T4 sequence (P15056 whole entry, species assumed): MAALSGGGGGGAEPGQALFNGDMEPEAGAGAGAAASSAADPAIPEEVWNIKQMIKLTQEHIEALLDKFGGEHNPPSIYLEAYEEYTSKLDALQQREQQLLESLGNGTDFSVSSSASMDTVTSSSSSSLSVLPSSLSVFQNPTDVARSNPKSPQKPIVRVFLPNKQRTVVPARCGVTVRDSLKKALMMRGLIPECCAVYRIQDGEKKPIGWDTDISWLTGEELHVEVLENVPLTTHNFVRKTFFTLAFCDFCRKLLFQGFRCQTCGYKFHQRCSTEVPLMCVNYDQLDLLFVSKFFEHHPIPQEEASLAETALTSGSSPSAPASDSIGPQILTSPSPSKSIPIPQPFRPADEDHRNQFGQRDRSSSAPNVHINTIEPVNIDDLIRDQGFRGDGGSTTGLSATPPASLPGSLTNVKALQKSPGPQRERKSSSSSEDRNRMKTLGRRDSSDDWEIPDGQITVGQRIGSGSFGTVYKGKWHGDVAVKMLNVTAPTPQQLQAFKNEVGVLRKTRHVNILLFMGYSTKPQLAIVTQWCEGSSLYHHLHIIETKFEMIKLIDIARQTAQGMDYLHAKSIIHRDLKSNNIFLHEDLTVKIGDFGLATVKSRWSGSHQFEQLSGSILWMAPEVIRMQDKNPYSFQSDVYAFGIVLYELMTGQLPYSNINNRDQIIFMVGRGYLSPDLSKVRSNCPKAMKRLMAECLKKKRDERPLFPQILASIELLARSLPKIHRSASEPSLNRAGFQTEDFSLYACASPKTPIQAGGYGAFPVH
In short: as §1

BRaf [5] = target: T4, BRaf; assay: 33PanQinase enzyme assay, BRaf; format: biochemical; conditions: ratio IC50(BRaf)/IC50(MKK4)
In short: as §2

JNK1 [6] = target: T3, JNK1; assay: KINOMEscan competition binding assay, JNK1; set-up: M1/Q384; host or cells: HEK-293; conditions: ratio PoC (off-target)/PoC (MKK4)
In short: as §1
Target sequence in this assay (P45983 1-384 isoform P45983-2): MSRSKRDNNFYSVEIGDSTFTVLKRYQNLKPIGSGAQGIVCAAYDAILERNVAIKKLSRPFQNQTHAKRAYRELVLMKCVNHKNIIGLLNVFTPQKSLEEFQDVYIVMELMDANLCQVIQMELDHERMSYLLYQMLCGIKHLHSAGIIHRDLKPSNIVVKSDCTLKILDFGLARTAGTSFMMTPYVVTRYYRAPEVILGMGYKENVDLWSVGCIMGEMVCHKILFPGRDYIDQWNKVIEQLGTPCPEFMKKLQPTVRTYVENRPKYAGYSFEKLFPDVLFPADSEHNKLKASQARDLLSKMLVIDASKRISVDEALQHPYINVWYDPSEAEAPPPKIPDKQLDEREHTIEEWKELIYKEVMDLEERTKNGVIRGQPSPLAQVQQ

MKK7 [7] = target: T2, MKK7; assay: 33PanQinase enzyme assay, MKK7; format: biochemical; set-up: purchased ProQinase GmbH, Freiburg, Germany (33PanQinase Assay Service); conditions: ratio IC50(MKK7)/IC50(MKK4)
In short: as §2

MKK4 [8] = target: T5, MKK4 (Homo sapiens, UniProt P45985); assay: 33PanQinase enzyme assay, MKK4; format: biochemical; conditions: assay 'IC50'; read-out: Potency MKK4 (IC50)
T5 construct: purchased ProQinase GmbH, Freiburg, Germany (33PanQinase Assay Service)
T5 sequence (P45985 1-399): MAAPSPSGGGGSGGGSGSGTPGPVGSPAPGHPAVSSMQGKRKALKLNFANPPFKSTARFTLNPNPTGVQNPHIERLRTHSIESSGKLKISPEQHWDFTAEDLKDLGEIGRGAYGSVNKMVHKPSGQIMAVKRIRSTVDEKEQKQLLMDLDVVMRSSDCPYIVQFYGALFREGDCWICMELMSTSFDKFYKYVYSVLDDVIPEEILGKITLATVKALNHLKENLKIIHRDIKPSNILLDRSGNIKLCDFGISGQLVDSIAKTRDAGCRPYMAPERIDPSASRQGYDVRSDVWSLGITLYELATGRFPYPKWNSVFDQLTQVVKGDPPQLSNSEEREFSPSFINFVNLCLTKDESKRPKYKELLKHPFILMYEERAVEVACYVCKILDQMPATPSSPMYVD
In short: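 Radiometric 33PanQinase assay: kinase, substrate, ATP and compound in standard buffer, 60 min at 30 °C; 33Pi incorporation read by scintillation counting.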

Row | MKK4 [% Ctrl @ 100 nM (MKK4 [1]) | selectivity based on % Ctrl @100 nM vs. MKK7 (MKK7 [2]) | selectivity based on % Ctrl @100 nM vs. Braf (BRaf [4]) | Selectivity Braf, IC50(off-target)/IC50(MKK4) (BRaf [5]) | selectivity based on % Ctrl @100 nM vs. JNK1 (JNK1 [6]) | Selectivity IVIKK7, IC50(off-target)/IC50(MKK4) (MKK7 [7]) | IC50 (MKK4 [8]) [nM] | Compound | Selectivity JNK1, IC50(off-target)/IC50(MKK4) (JNK1 [3])
1 | ++ (1 ≤ PoC < 3) | ++ (100 ≥ ratio > 10) | ++ (100 ≥ ratio > 10) | +++ (IC50(off-target)/IC50(MKK4) > 100) | ++ (100 ≥ ratio > 10) | +++ (IC50(off-target)/IC50(MKK4) > 100) | 100 to 1000 | COc1ccc(-c2cnc3[nH]cc(C(=O)c4cccc(NS(=O)(=O)Cc5ccccc5)c4F)c3c2)c(Cl)c1 [Example 125, N-(3-(5-(2-chloro-4-methoxyphenyl)-1H-pyrrolo[2,3-b]pyridine-3-carbonyl)-2-fluorophenyl)-1-phenylmethanesulfonamide] | + (10 ≥ IC50(off-target)/IC50(MKK4) > 3)
2 | +++ (PoC < 1) | +++ (Ratio > 100) | +++ (Ratio > 100) | + (10 ≥ IC50(off-target)/IC50(MKK4) > 3) | +++ (Ratio > 100) | +++ (IC50(off-target)/IC50(MKK4) > 100) | < 100 | O=C(c1c(F)ccc(NS(=O)(=O)CCC(F)(F)F)c1F)c1c[nH]c2ncc(-c3ccc(N4CCS(=O)(=O)CC4)nc3)cc12 [Example 81, N-(3-(5-(6-(1,1-dioxidothiomorpholino)pyridin-3-yl)-1H-pyrrolo[2,3-b]pyridine-3-carbonyl)-2,4-difluorophenyl)-3,3,3-trifluoropropane-1-sulfonamide] | ++ (100 ≥ IC50(off-target)/IC50(MKK4) > 10)
3 | +++ (PoC < 1) | +++ (Ratio > 100) | +++ (Ratio > 100) | +++ (IC50(off-target)/IC50(MKK4) > 100) | +++ (Ratio > 100) | +++ (IC50(off-target)/IC50(MKK4) > 100) | < 100 | O=C(c1ccc(F)c(NS(=O)(=O)CCC(F)(F)F)c1F)c1c[nH]c2ncc(-c3cnc(N4CCCC4)nc3)cc12 [Example 179, N-(2,6-difluoro-3-(5-(2-(pyrrolidin-1-yl)pyrimidin-5-yl)-1H-pyrrolo[2,3-b]pyridine-3-carbonyl)phenyl)-3,3,3-trifluoropropane-1-sulfonamide] | +++ (IC50(off-target)/IC50(MKK4) > 100)
4 | ++ (1 ≤ PoC < 3) | ++ (100 ≥ ratio > 10) | ◯ (3 ≥ Ratio) | ◯ (3 ≥ IC50(off-target)/IC50(MKK4)) | ++ (100 ≥ ratio > 10) | +++ (IC50(off-target)/IC50(MKK4) > 100) | 100 to 1000 | CCCS(=O)(=O)Nc1ccc(F)c(C(=O)c2c[nH]c3ncc(-c4cccc(O)c4)cc23)c1F [Example 101, N-(2,4-difluoro-3-(5-(3-hydroxyphenyl)-1H-pyrrolo[2,3-b]pyridine-3-carbonyl)phenyl)propane-1-sulfonamide] | ◯ (3 ≥ IC50(off-target)/IC50(MKK4))

Row | Compound | MKK4 [% Ctrl @ 100 nM (MKK4 [1]) | selectivity based on % Ctrl @100 nM vs. MKK7 (MKK7 [2]) | selectivity based on % Ctrl @100 nM vs. Braf (BRaf [4]) | Selectivity Braf, IC50(off-target)/IC50(MKK4) (BRaf [5]) | selectivity based on % Ctrl @100 nM vs. JNK1 (JNK1 [6]) | Selectivity IVIKK7, IC50(off-target)/IC50(MKK4) (MKK7 [7]) | IC50 (MKK4 [8]) [nM] | Selectivity JNK1, IC50(off-target)/IC50(MKK4) (JNK1 [3])
5 | CCCS(=O)(=O)Nc1c(F)ccc(C(=O)c2c[nH]c3ncc(-c4ccc(NC)nc4)cc23)c1F [Example 160, N-(2,6-difluoro-3-(5-(6-(methylamino)pyridin-3-yl)-1H-pyrrolo[2,3-b]pyridine-3-carbonyl)phenyl)propane-1-sulfonamide] | +++ (PoC < 1) | +++ (Ratio > 100) | +++ (Ratio > 100) | ++ (100 ≥ IC50(off-target)/IC50(MKK4) > 10) | +++ (Ratio > 100) | +++ (IC50(off-target)/IC50(MKK4) > 100) | < 100 | ++ (100 ≥ IC50(off-target)/IC50(MKK4) > 10)
6 | CCCS(=O)(=O)Nc1c(F)ccc(C(=O)c2c[nH]c3ncc(-c4ccc(N5CCC5)nc4)cc23)c1F [Example 162, N-(3-(5-(6-(azetidin-1-yl)pyridin-3-yl)-1H-pyrrolo[2,3-b]pyridine-3-carbonyl)-2,6-difluorophenyl)propane-1-sulfonamide] | +++ (PoC < 1) | +++ (Ratio > 100) | +++ (Ratio > 100) | ++ (100 ≥ IC50(off-target)/IC50(MKK4) > 10) | +++ (Ratio > 100) | +++ (IC50(off-target)/IC50(MKK4) > 100) | 100 to 1000 | ++ (100 ≥ IC50(off-target)/IC50(MKK4) > 10)
